# Assay results reported in patent US10022442B2, “Pyrazolopyrimidine compounds” (GlaxoSmithKline LLC, priority 2012, dated 2018).
# Counter-ions that a name gives are not always drawn.
# Tests used:
# Interferon-α = test: Induction of Interferon-α using fresh human whole blood (WB); format: cell-based; details: three donors, overnight incubation, cytokine released as % of 2 μM resiquimod control, read-out: mean pEC50 for IFNα (converted)
# Method: (§1) Assay for the Induction of Interferon-α and TNF-α using Fresh Human Whole Blood (WB)
# (§2) Compounds were prepared at 100× required concentration in DMSO in flat-bottom microtitre plates at a volume of 1.5 μL. Columns 1-10 contained a 1 in 4 serial dilution of the test compound. Included on each plate was a serial dilution of the TLR7/8 agonist resiquimod as a standard and Column 11 contained 1.5 μl of 200 μM resiquimod (giving a 2 μM final concentration, used to define the approximate maximal response to resiquimod). Each compound was assayed in duplicate for each donor.
# (§3) Incubation and Assays for Interferon-α and TNF-α
# (§4) Blood samples from three human donors were collected into sodium heparin (10 U/ml). 150 μl of whole Blood was dispensed into Col 1 to 11 of assay plates containing 1.5 μl of test compound or standard in DMSO. Plates were placed in an incubator overnight (37° C., 95% air, 5% CO2). Following the overnight incubation, plates were removed from the incubator & mixed on an orbital shaker for approximately 1 minute. 100 μl of 0.9% saline was added to each well and the plates mixed again on an orbital shaker. Plates were then centrifuged (2500 rpm, 10 mins), after which a sample of plasma was removed using a Biomek FX and assayed for both IFN-α and TNF-α using the MSD (Mesoscale Discovery) electrochemiluminescence assay platform. The IFN-α assay was carried out similarly to that described above. The TNF-α assay was carried out as per kit instructions (Cat No K111BHB).
# (§5) Cytokine released was expressed as a percentage of the 2 μM resiquimod control (column 11). This percentage was plotted against compound concentration and the pEC50 for the response determined by non-linear least squares curve fitting. For the IFN-α responses, generally a 4 parameter logistic model was selected. For the TNF responses where a clear maximum response was obtained (i.e. a well defined plateau in the response was observed) then a 4 parameter model was generally used. If the upper asymptote of the curve wasn't well defined then the curve fitting was generally constrained to a maximal response of 100% (i.e. to the response to 2 μM resiquimod) or to the response of the highest concentration tested if this was greater than the resiquimod response. Some curves were bell shaped for one or both cytokines and the cytokine data on the down slope of the bell shaped response (i.e. concentrations above those giving the maximal response) were generally excluded from the fit, usually with the exception of the concentration immediately above the peak response. Curve fitting thus concentrated on the up slope of the dose response curve.
# TNF-α = test: Induction of TNF-α using fresh human whole blood (WB); format: cell-based; details: three donors, overnight incubation, cytokine released as % of 2 μM resiquimod control, read-out: mean pEC50 for TNF-α (converted)
# Method: as §1, §2, §3, §4, §5
smiles,measurement,setting,value
"CCCCc1nc(N)c2[nH]nc(CCCCCCN3CCCCC3)c2n1 [Example 1, 5-Butyl-3-(6-(piperidin-1-yl)hexyl)-1H-pyrazolo[4,3-d]pyrimidin-7-amine formate]",EC50,Interferon-α,≤ 1.26 µM
same,EC50,TNF-α,≥ 3.98 µM
"COCCc1nc(N)c2[nH]nc(CCCCCCN3CCCCC3)c2n1 [Example 2, 5-(2-Methoxyethyl)-3-(6-(piperidin-1-yl)hexyl)-1H-pyrazolo[4,3-d]pyrimidin-7-amine]",EC50,Interferon-α,≤ 1.26 µM
same,EC50,TNF-α,≥ 3.98 µM
"COCCc1nc(N)c2[nH]nc(CCCCCCN3CCCC3)c2n1 [Example 4, 5-(2-Methoxyethyl)-3-(6-(pyrrolidin-1-yl)hexyl)-1H-pyrazolo[4,3-d]pyrimidin-7-amine]",EC50,Interferon-α,≤ 1.26 µM
same,EC50,TNF-α,≥ 3.98 µM
"CCCCc1nc(N)c2[nH]nc(CCCCCN3CCCCC3)c2n1 [Example 5, 5-Butyl-3-(5-(piperidin-1-yl)pentyl)-1H-pyrazolo[4,3-d]pyrimidin-7-amine]",EC50,Interferon-α,≤ 1.26 µM
same,EC50,TNF-α,≥ 3.98 µM
"CCCCc1nc(N)c2[nH]nc(CCCCCN3CCCC3)c2n1 [Example 6, 5-Butyl-3-(5-(pyrrolidin-1-yl)pentyl)-1H-pyrazolo[4,3-d]pyrimidin-7-amine]",EC50,Interferon-α,≤ 1.26 µM
same,EC50,TNF-α,≥ 3.98 µM
"CCCCc1nc(N)c2[nH]nc(CCCCCCCN3CCCCC3)c2n1 [Example 7, 5-Butyl-3-(7-(piperidin-1-yl)heptyl)-1H-pyrazolo[4,3-d]pyrimidin-7-amine]",EC50,Interferon-α,≤ 1.26 µM
same,EC50,TNF-α,≥ 3.98 µM
"CCCCc1nc(N)c2[nH]nc(CCCCCCCN3CCCC3)c2n1 [Example 8, 5-Butyl-3-(7-(pyrrolidin-1-yl)heptyl)-1H-pyrazolo[4,3-d]pyrimidin-7-amine]",EC50,Interferon-α,≤ 1.26 µM
same,EC50,TNF-α,≥ 3.98 µM
"CCCCc1nc(N)c2[nH]nc(CCCCCCN3CCCCCC3)c2n1 [Example 9, 3-(6-(Azepan-1-yl)hexyl)-5-butyl-1H-pyrazolo[4,3-d]pyrimidin-7-amine]",EC50,Interferon-α,≤ 1.26 µM
same,EC50,TNF-α,≥ 3.98 µM
"CCCCc1nc(N)c2[nH]nc(CCCCCN3CCCCCC3)c2n1 [Example 10, 3-(5-(Azepan-1-yl)pentyl)-5-butyl-1H-pyrazolo[4,3-d]pyrimidin-7-amine]",EC50,Interferon-α,≤ 1.26 µM
same,EC50,TNF-α,≥ 3.98 µM
"CCCCc1nc(N)c2[nH]nc(CCCCCCN3CC[C@H](F)C3)c2n1 [Example 11, (S)-5-Butyl-3-(6-(3-fluoropyrrolidin-1-yl)hexyl)-1H-pyrazolo[4,3-d]pyrimidin-7-amine]",EC50,Interferon-α,≤ 1.26 µM
same,EC50,TNF-α,≥ 3.98 µM
"CCCCc1nc(N)c2[nH]nc(CCCCCN3CC[C@H](F)C3)c2n1 [Example 12, (S)-5-Butyl-3-(5-(3-fluoropyrrolidin-1-yl)pentyl)-1H-pyrazolo[4,3-d]pyrimidin-7-amine]",EC50,Interferon-α,≤ 1.26 µM
same,EC50,TNF-α,≥ 3.98 µM
"CCCCc1nc(N)c2[nH]nc(CCCCCCN3CC[C@@H](F)C3)c2n1 [Example 13, (R)-5-Butyl-3-(6-(3-fluoropyrrolidin-1-yl)hexyl)-1H-pyrazolo[4,3-d]pyrimidin-7-amine formate]",EC50,Interferon-α,≤ 1.26 µM
same,EC50,TNF-α,≥ 3.98 µM
"CCCCc1nc(N)c2[nH]nc(CCCCCN3CC[C@@H](F)C3)c2n1 [Example 14, (R)-5-Butyl-3-(5-(3-fluoropyrrolidin-1-yl)pentyl)-1H-pyrazolo[4,3-d]pyrimidin-7-amine]",EC50,Interferon-α,≤ 1.26 µM
same,EC50,TNF-α,≥ 3.98 µM
"CCCCc1nc(N)c2[nH]nc(CCCCCCN3CCC(O)CC3)c2n1 [Example 15, 1-(6-(7-Amino-5-butyl-1H-pyrazolo[4,3-d]pyrimidin-3-yl)hexyl)piperidin-4-01]",EC50,Interferon-α,≤ 1.26 µM
same,EC50,TNF-α,≥ 3.98 µM
"CCCCc1nc(N)c2[nH]nc(CCCCCN3CCC(O)CC3)c2n1 [Example 16, 1-(5-(7-Amino-5-butyl-1H-pyrazolo[4,3-d]pyrimidin-3-yl)pentyl)piperidin-4-01]",EC50,Interferon-α,≤ 1.26 µM
same,EC50,TNF-α,≥ 3.98 µM
"CCCCc1nc(N)c2[nH]nc(CCCCCCN3CCC(F)CC3)c2n1 [Example 17, 5-Butyl-3-(6-(4-fluoropiperidin-1-yl)hexyl)-1H-pyrazolo[4,3-d]pyrimidin-7-amine formate]",EC50,Interferon-α,≤ 1.26 µM
same,EC50,TNF-α,≥ 3.98 µM
"CCCCc1nc(N)c2[nH]nc(CCCCCN3CCC(F)CC3)c2n1 [Example 18, 5-Butyl-3-(5-(4-fluoropiperidin-1-yl)pentyl)-1H-pyrazolo[4,3-d]pyrimidin-7-amine]",EC50,Interferon-α,≤ 1.26 µM
same,EC50,TNF-α,≥ 3.98 µM
